The numbers were not newly measured in patent publication US11376263B2, “Cyproterone acetate compositions and uses thereof” (FORTRESS BIOTECH, INC., priority 2020, dated 2022), which cites them from elsewhere.

For series [1] the following is noted: daily administration.

Regarding `C#C[C@]1(O)CC[C@H]2[C@@H]3CCc4cc(O)ccc4[C@H]3CC[C@@]21C` [EE, ethinylestradiol], the “AUC and Cmax in obese women versus normal weight women” value (obese vs normal weight women) was “lower”. For the same molecule, under “oral, large inter- and intraindividual variability”, the mean oral bioavailability entry is on record as “approximately 45%”.
Consider `CC(=O)O[C@]1(C(C)=O)CC[C@H]2[C@@H]3C=C(Cl)C4=CC(=O)[C@@H]5C[C@@H]5[C@]4(C)[C@H]3CC[C@@]21C` [CPA, cyproterone acetate], for which, in series [1], the “time to CPA steady state” value is “approximately 16 days”.
